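Values below derive from 48-hour exposures of cells grown in 96-well plates, with endpoints linearly interpolated between the two concentrations bracketing the appropriate inhibition level. GI50 is the concentration that inhibits growth by half. The concentration for full growth arrest is given as TGI.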
Columns and labels:
Test in all cases: NCI anticancer screen, dose series, 48 h
SK-MEL-28 melanoma = test system: SK-MEL-28 melanoma
MDA-MB-435 = test system: MDA-MB-435
A549 NSCLC = test system: A549 NSCLC
HCT-116 colon = test system: HCT-116 colon
CAKI-1 renal = test system: CAKI-1 renal
OVCAR-3 ovarian = test system: OVCAR-3 ovarian
SR leukemia = test system: SR leukemia
UO-31 renal = test system: UO-31 renal
NCI-H522 lung = test system: NCI-H522 lung
HCT-15 colon = test system: HCT-15 colon
NCI-H460 lung = test system: NCI-H460 lung
SN12C renal = test system: SN12C renal
HCC-2998 colon = test system: HCC-2998 colon
TK-10 renal = test system: TK-10 renal
HL-60(TB) leukemia = test system: HL-60(TB) leukemia
SK-MEL-2 melanoma = test system: SK-MEL-2 melanoma
RXF 393 renal = test system: RXF 393 renal
LOX IMVI melanoma = test system: LOX IMVI melanoma
786-0 renal = test system: 786-0 renal
OVCAR-8 ovarian = test system: OVCAR-8 ovarian
OVCAR-4 ovarian = test system: OVCAR-4 ovarian
RPMI-8226 leukemia = test system: RPMI-8226 leukemia
SF-268 CNS = test system: SF-268 CNS
M14 melanoma = test system: M14 melanoma
BT-549 breast = test system: BT-549 breast
SK-MEL-5 melanoma = test system: SK-MEL-5 melanoma
SK-OV-3 ovarian = test system: SK-OV-3 ovarian
SF-295 CNS = test system: SF-295 CNS
ACHN renal = test system: ACHN renal
IGROV1 ovarian = test system: IGROV1 ovarian
KM12 colon = test system: KM12 colon
U251 CNS = test system: U251 CNS
MOLT-4 leukemia = test system: MOLT-4 leukemia
HOP-62 NSCLC = test system: HOP-62 NSCLC
SNB-75 CNS = test system: SNB-75 CNS
K-562 leukemia = test system: K-562 leukemia
NCI/ADR-RES ovarian = test system: NCI/ADR-RES ovarian
EKVX NSCLC = test system: EKVX NSCLC
MCF7 breast = test system: MCF7 breast
DU-145 prostate = test system: DU-145 prostate
NCI-H226 lung = test system: NCI-H226 lung
OVCAR-5 ovarian = test system: OVCAR-5 ovarian
UACC-62 melanoma = test system: UACC-62 melanoma
SF-539 CNS = test system: SF-539 CNS
HS 578T breast = test system: HS 578T breast
COLO 205 colon = test system: COLO 205 colon
HOP-92 NSCLC = test system: HOP-92 NSCLC
UACC-257 melanoma = test system: UACC-257 melanoma
MALME-3M melanoma = test system: MALME-3M melanoma
A498 renal = test system: A498 renal
MDA-MB-231 breast = test system: MDA-MB-231 breast
PC-3 prostate = test system: PC-3 prostate
SW-620 colon = test system: SW-620 colon
SNB-19 CNS = test system: SNB-19 CNS
T-47D breast = test system: T-47D breast
HT29 colon = test system: HT29 colon
NCI-H23 lung = test system: NCI-H23 lung

## COc1ccc2oc(=O)cc(C3c4ccc([nH]4)C(c4cc(=O)oc5ccc(OC)cc45)c4ccc([nH]4)C(c4cc(=O)oc5ccc(OC)cc45)c4ccc([nH]4)C(c4cc(=O)oc5ccc(OC)cc45)c4ccc3[nH]4)c2c1 (centres undefined)
SK-MEL-28 melanoma
  GI50: 2480 nM
  TGI: 12900 nM
MDA-MB-435
  GI50: 1900 nM
  TGI: 6660 nM
A549 NSCLC
  GI50: 4230 nM
  TGI: 14300 nM
HCT-116 colon
  GI50: 570 nM
  TGI: 1930 nM
CAKI-1 renal
  GI50: 2160 nM
  TGI: 6770 nM
OVCAR-3 ovarian
  GI50: 230 nM
  TGI: 611 nM
SR leukemia
  GI50: 371 nM
  TGI: 1660 nM
UO-31 renal
  GI50: 1220 nM
  TGI: 3740 nM
NCI-H522 lung
  GI50: 1650 nM
  TGI: 3160 nM
HCT-15 colon
  GI50: 399 nM
  TGI: 1530 nM
NCI-H460 lung
  GI50: 3110 nM
  TGI: 10400 nM
SN12C renal
  GI50: 3120 nM
  TGI: 12700 nM
HCC-2998 colon
  GI50: 2170 nM
  TGI: 4060 nM
TK-10 renal
  GI50: 1580 nM
  TGI: 2950 nM
HL-60(TB) leukemia
  GI50: 357 nM
  TGI: 976 nM
SK-MEL-2 melanoma
  GI50: 3020 nM
  TGI: 9500 nM
RXF 393 renal
  GI50: 318 nM
  TGI: 950 nM
LOX IMVI melanoma
  GI50: 814 nM
  TGI: 2430 nM
786-0 renal
  GI50: 1000 nM
  TGI: 2200 nM
OVCAR-8 ovarian
  GI50: 619 nM
  TGI: 2780 nM
OVCAR-4 ovarian
  GI50: 1260 nM
  TGI: 2780 nM
RPMI-8226 leukemia
  GI50: 432 nM
  TGI: 2040 nM
SF-268 CNS
  GI50: 2890 nM
  TGI: 11200 nM
M14 melanoma
  GI50: 1240 nM
  TGI: 4600 nM
BT-549 breast
  GI50: 2020 nM
  TGI: 5360 nM
SK-MEL-5 melanoma
  GI50: 2210 nM
  TGI: 9070 nM
SK-OV-3 ovarian
  GI50: 2450 nM
  TGI: 7330 nM
SF-295 CNS
  GI50: 2820 nM
  TGI: 10600 nM
ACHN renal
  GI50: 2120 nM
  TGI: 6710 nM
IGROV1 ovarian
  GI50: 2440 nM
  TGI: 10800 nM
KM12 colon
  GI50: 2910 nM
  TGI: 10800 nM
U251 CNS
  GI50: 4000 nM
  TGI: 13900 nM
MOLT-4 leukemia
  GI50: 414 nM
  TGI: 4240 nM
HOP-62 NSCLC
  GI50: 2730 nM
  TGI: 9560 nM
SNB-75 CNS
  GI50: 2710 nM
  TGI: 14800 nM
K-562 leukemia
  GI50: 413 nM
  TGI: 2030 nM
NCI/ADR-RES ovarian
  GI50: 594 nM
  TGI: 24800 nM
EKVX NSCLC
  GI50: 7580 nM
  TGI: 22300 nM
MCF7 breast
  GI50: 364 nM
  TGI: 2160 nM
DU-145 prostate
  GI50: 2070 nM
  TGI: 4750 nM
NCI-H226 lung
  GI50: 1360 nM
  TGI: 4630 nM
OVCAR-5 ovarian
  GI50: 2980 nM
  TGI: 11100 nM
UACC-62 melanoma
  GI50: 2690 nM
  TGI: 7810 nM
SF-539 CNS
  GI50: 1700 nM
  TGI: 3910 nM
HS 578T breast
  GI50: 2800 nM
  TGI: 9430 nM
COLO 205 colon
  GI50: 1750 nM
  TGI: 3600 nM
HOP-92 NSCLC
  GI50: 2050 nM
  TGI: 6500 nM
UACC-257 melanoma
  GI50: 2250 nM
  TGI: 13200 nM
MALME-3M melanoma
  GI50: 1540 nM
  TGI: 3730 nM
A498 renal
  GI50: 4090 nM
  TGI: 12700 nM
MDA-MB-231 breast
  GI50: 2150 nM
  TGI: 9040 nM
PC-3 prostate
  GI50: 2210 nM
  TGI: 6760 nM
SW-620 colon
  GI50: 389 nM
  TGI: 1690 nM
SNB-19 CNS
  GI50: 5480 nM
  TGI: 18300 nM
T-47D breast
  GI50: 475 nM
  TGI: 3690 nM
HT29 colon
  GI50: 2280 nM
  TGI: 5440 nM
NCI-H23 lung
  GI50: 2370 nM
  TGI: 6420 nM
